Values of other authors as cited in US20210186070A1, “STEVIA EXTRACT CONTAINING SELECTED STEVIOL GLYCOSIDES AS FLAVOR, SALTY AND SWEETNESS PROFILE MODIFIER” (PureCircle USA Inc., priority 2013, published 2021).

Q: With `C=C1C[C@@]23CC[C@H]4[C@@](C)(CCC[C@@]4(C)C(=O)O[C@@H]4O[C@H](CO)[C@@H](O)[C@H](O)[C@H]4O)[C@@H]2CC[C@]1(O[C@@H]1O[C@H](CO)[C@@H](O)[C@H](O[C@@H]2O[C@H](CO)[C@@H](O)[C@H](O)[C@H]2O)[C@H]1O[C@@H]1O[C@H](CO)[C@@H](O)[C@H](O)[C@H]1O)C3` [Rebaudioside A] as the molecule, how does the “sweetness potency, times higher than sucrose” value read?
A: around 300 times
